Experimental data published in PubChem BioAssay AID248 (DTP/NCI, 2004).
Values joined by “and” are separate entries in the source; they are usually repeats but may differ in a detail not shown here. Equal entries are not always repeated. Toxic doses and inconclusive results are not listed. No stated cut-off is given here; in the data, active means T/C of 150% or more; inactive means T/C below 125%.

System: L1210 leukemia ip in BDF1 mice, survival T/C
Test: NCI In Vivo Anticancer Drug Screen. Data for tumor model L1210 Leukemia (intraperitoneal) in B6D2F1 (BDF1) mice
Settings: higher = longer survival
Outline: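 Mice bearing the transplanted tumor received compound or vehicle. Survival of the treated group was divided by that of the vehicle-treated control group to give the ratio.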

[1] = endpoint: mean survival time, dose: 100.0 mg/kg/injection, schedule: Q01DX001 (ip), vehicle: carboxymethylcellulose (CMC)
[2] = endpoint: mean survival time, dose: 200.0 mg/kg/injection, schedule: Q01DX001 (ip), vehicle: carboxymethylcellulose (CMC)
[3] = endpoint: mean survival time, dose: 400.0 mg/kg/injection, schedule: Q01DX001 (ip), vehicle: carboxymethylcellulose (CMC)
[4] = endpoint: mean survival time, dose: 100.0 mg/kg/injection, schedule: Q01DX009 (ip), vehicle: saline with Tween-80
[5] = endpoint: mean survival time, dose: 200.0 mg/kg/injection, schedule: Q01DX009 (ip), vehicle: saline with Tween-80
[6] = endpoint: mean survival time, dose: 100.0 mg/kg/injection, schedule: Q01DX001 (ip), vehicle: saline
[7] = endpoint: mean survival time, dose: 100.0 mg/kg/injection, schedule: Q04DX003 (ip), vehicle: Klucel (hydroxypropylcellulose) (HPC)
[8] = endpoint: mean survival time, dose: 200.0 mg/kg/injection, schedule: Q01DX001 (ip), vehicle: saline
[9] = endpoint: mean survival time, dose: 200.0 mg/kg/injection, schedule: Q04DX003 (ip), vehicle: Klucel (hydroxypropylcellulose) (HPC)
[10] = endpoint: mean survival time, dose: 400.0 mg/kg/injection, schedule: Q01DX001 (ip), vehicle: saline
[11] = endpoint: mean survival time, dose: 400.0 mg/kg/injection, schedule: Q04DX003 (ip), vehicle: Klucel (hydroxypropylcellulose) (HPC)
[12] = endpoint: mean survival time, dose: 400.0 mg/kg/injection, schedule: Q01DX009 (ip), vehicle: saline with Tween-80

Measured: T/C

CN(C)Cc1cc2ccccc2cc1C(O)(c1ccccc1)c1ccccc1
inactive: endpoint: mean survival time, dose: 50.0 mg/kg/injection, schedule: Q01DX001 (ip), vehicle: carboxymethylcellulose (CMC) 102 % of control | [1] 88 % of control | [2] 94 % of control | [3] 96 % of control

COc1cc(/C=N\NC(=O)CNC(=O)Nc2cccc(Cl)c2)ccc1O
inactive: [4] 90 % of control | [5] 87 % of control

O=Cc1c[nH]c2ccccc12
inactive: [6] 104 % of control | endpoint: mean survival time, dose: 100.0 mg/kg/injection, schedule: Q01DX009 (ip), vehicle: Klucel (hydroxypropylcellulose) (HPC) 103 % of control | [7] 110 % of control | [8] 98 % of control | endpoint: mean survival time, dose: 200.0 mg/kg/injection, schedule: Q01DX009 (ip), vehicle: Klucel (hydroxypropylcellulose) (HPC) 102 % of control | [9] 105 % of control | [10] 97 % of control | endpoint: mean survival time, dose: 400.0 mg/kg/injection, schedule: Q01DX009 (ip), vehicle: Klucel (hydroxypropylcellulose) (HPC) 107 % of control | [11] 98 % of control

COc1cc(C)nc(OC)n1
inactive: [6] 96 % of control | [8] 96 % of control | [10] 96 % of control

Cc1ccc(C)c(CCCC(=O)O)c1
inactive: [4] 96 % of control | [7] 105 % of control | [5] 93 % of control | [9] 94 % of control | [12] 104 % of control | [11] 100 % of control

Cc1cn(C2CC(O)C(CF)O2)c(=O)[nH]c1=O (stereo unspecified)
inactive: endpoint: mean survival time, dose: 100.0 mg/kg/injection, schedule: Q01DX005 (ip), vehicle: saline 117 % of control | endpoint: mean survival time, dose: 200.0 mg/kg/injection, schedule: Q01DX005 (ip), vehicle: saline 122 % of control

CC(C)OC(=O)COc1ccc(Cl)cc1
inactive: endpoint: mean survival time, dose: 100.0 mg/kg/injection, schedule: Q01DX009 (ip), vehicle: carboxymethylcellulose (CMC) 101 % of control and 102 % of control | endpoint: mean survival time, dose: 100.0 mg/kg/injection, schedule: Q04DX002 (ip), vehicle: carboxymethylcellulose (CMC) 101 % of control and 105 % of control | endpoint: mean survival time, dose: 100.0 mg/kg/injection, schedule: Q04DX003 (ip), vehicle: carboxymethylcellulose (CMC) 102 % of control | endpoint: mean survival time, dose: 200.0 mg/kg/injection, schedule: Q01DX009 (ip), vehicle: carboxymethylcellulose (CMC) 101 % of control and 91 % of control | endpoint: mean survival time, dose: 200.0 mg/kg/injection, schedule: Q04DX002 (ip), vehicle: carboxymethylcellulose (CMC) 102 % of control and 106 % of control | endpoint: mean survival time, dose: 200.0 mg/kg/injection, schedule: Q04DX003 (ip), vehicle: carboxymethylcellulose (CMC) 104 % of control | endpoint: mean survival time, dose: 400.0 mg/kg/injection, schedule: Q01DX009 (ip), vehicle: carboxymethylcellulose (CMC) 108 % of control and 88 % of control | endpoint: mean survival time, dose: 400.0 mg/kg/injection, schedule: Q04DX002 (ip), vehicle: carboxymethylcellulose (CMC) 98 % of control and 108 % of control | endpoint: mean survival time, dose: 400.0 mg/kg/injection, schedule: Q04DX003 (ip), vehicle: carboxymethylcellulose (CMC) 101 % of control

COc1ccc2c3c1OC1C(=O)CCC4C(C2)N(C)CCC314 (stereo unspecified)
inactive: endpoint: mean survival time, dose: 75.0 mg/kg/injection, schedule: Q01DX001 (ip), vehicle: saline 94 % of control

CS(=O)(=O)Oc1ccc2cc(Br)ccc2c1
inactive: [1] 102 % of control | [2] 100 % of control | [3] 107 % of control

CC(=O)N(C(C)=O)c1ccccc1
inactive: [4] 105 % of control | [5] 107 % of control | [12] 115 % of control

O=C(O)CC1CCN(C(=O)c2ccccc2)C(Cc2c[nH]c3ccccc23)C1O (stereo unspecified)
inactive: [6] 97 % of control | [8] 101 % of control | [10] 92 % of control

CCOC(=O)NC(S(=O)(=O)O)S(=O)(=O)O.[Tl]
inactive: endpoint: mean survival time, dose: 25.0 mg/kg/injection, schedule: Q01DX001 (ip), vehicle: saline with Tween-80 102 % of control

CCC1=C(C[C@H]2NCCc3cc(OC)c(OC)cc32)C[C@H]2c3cc(OC)c(OC)cc3CCN2C1
inactive: endpoint: mean survival time, dose: 1.0 mg/kg/injection, schedule: Q01DX005 (ip), vehicle: saline 111 % of control | endpoint: mean survival time, dose: 1.0 mg/kg/injection, schedule: Q03HX024 (ip), vehicle: saline 111 % of control | endpoint: mean survival time, dose: 2.0 mg/kg/injection, schedule: Q01DX005 (ip), vehicle: saline 107 % of control and 108 % of control | endpoint: mean survival time, dose: 2.0 mg/kg/injection, schedule: Q01DX009 (ip), vehicle: saline 103 % of control | endpoint: mean survival time, dose: 2.0 mg/kg/injection, schedule: Q03HX016 (ip), vehicle: saline 111 % of control | endpoint: mean survival time, dose: 2.0 mg/kg/injection, schedule: Q04DX003 (ip), vehicle: saline 103 % of control and 104 % of control | endpoint: mean survival time, dose: 2.32 mg/kg/injection, schedule: Q01DX005 (ip), vehicle: saline 117 % of control | endpoint: mean survival time, dose: 4.0 mg/kg/injection, schedule: Q01DX005 (ip), vehicle: saline 119 % of control [middle of 4 runs] | endpoint: mean survival time, dose: 4.0 mg/kg/injection, schedule: Q01DX005 (sc), vehicle: saline 122 % of control | endpoint: mean survival time, dose: 4.0 mg/kg/injection, schedule: Q01DX009 (ip), vehicle: saline 103 % of control and 119 % of control | endpoint: mean survival time, dose: 4.0 mg/kg/injection, schedule: Q04DX003 (ip), vehicle: saline 107 % of control and 105 % of control and 108 % of control | endpoint: mean survival time, dose: 4.64 mg/kg/injection, schedule: Q01DX005 (ip), vehicle: saline 116 % of control | endpoint: mean survival time, dose: 4.64 mg/kg/injection, schedule: Q04DX003 (ip), vehicle: saline 106 % of control | endpoint: mean survival time, dose: 8.0 mg/kg/injection, schedule: Q01DX005 (oral), vehicle: saline 102 % of control | endpoint: mean survival time, dose: 8.0 mg/kg/injection, schedule: Q01DX005 (sc), vehicle: saline 119 % of control | endpoint: mean survival time, dose: 8.0 mg/kg/injection, schedule: Q01DX009 (ip), vehicle: saline 108 % of control | endpoint: mean survival time, dose: 8.0 mg/kg/injection, schedule: Q04DX003 (ip), vehicle: saline 111 % of control [middle of 4 runs] | endpoint: mean survival time, dose: 9.28 mg/kg/injection, schedule: Q04DX003 (ip), vehicle: saline 94 % of control | endpoint: mean survival time, dose: 16.0 mg/kg/injection, schedule: Q01DX005 (oral), vehicle: saline 116 % of control | endpoint: mean survival time, dose: 16.0 mg/kg/injection, schedule: Q01DX005 (sc), vehicle: saline 105 % of control | endpoint: mean survival time, dose: 16.0 mg/kg/injection, schedule: Q08DX002 (ip), vehicle: saline 120 % of control | endpoint: mean survival time, dose: 32.0 mg/kg/injection, schedule: Q01DX001 (sc), vehicle: saline 110 % of control | endpoint: mean survival time, dose: 37.12 mg/kg/injection, schedule: Q04DX003 (ip), vehicle: saline 108 % of control | endpoint: mean survival time, dose: 64.0 mg/kg/injection, schedule: Q01DX001 (sc), vehicle: saline 121 % of control | endpoint: mean survival time, dose: 64.0 mg/kg/injection, schedule: Q04DX003 (ip), vehicle: saline 102 % of control | endpoint: median survival time, dose: 4.0 mg/kg/injection, schedule: Q04DX003 (ip), vehicle: saline 102 % of control | endpoint: median survival time, dose: 8.0 mg/kg/injection, schedule: Q04DX003 (ip), vehicle: saline 107 % of control | endpoint: median survival time, dose: 16.0 mg/kg/injection, schedule: Q04DX003 (ip), vehicle: saline 110 % of control

C=C1C(=O)N(C)C(C(=O)OC)CC1C(CC)C(=O)OC (stereo unspecified)
inactive: endpoint: mean survival time, dose: 25.0 mg/kg/injection, schedule: Q01DX001 (ip), vehicle: saline 104 % of control | endpoint: mean survival time, dose: 50.0 mg/kg/injection, schedule: Q01DX001 (ip), vehicle: saline 114 % of control | [6] 95 % of control | [8] 108 % of control

O=CC(O)C(O)C(O)C(O)COC(=S)OCC(O)C(O)C(O)C(O)C=O (stereo unspecified) (tested in a mixture with another compound)
inactive: endpoint: mean survival time, dose: 100.0 mg/kg/injection, schedule: Q04DX002 (ip), vehicle: saline 110 % of control | endpoint: mean survival time, dose: 200.0 mg/kg/injection, schedule: Q04DX002 (ip), vehicle: saline 100 % of control | endpoint: mean survival time, dose: 400.0 mg/kg/injection, schedule: Q04DX002 (ip), vehicle: saline 95 % of control
